Legend:
[1] = system: melanocytes (MeI-Ab cells); assay: Inhibition of melanin generation in mouse melanocytes; type: cell-based, C57BL/6 mouse; conditions: added for 3 consecutive days; sample 10 μg/mL
Method: Inhibition of melanin generation in mouse melanocytes was evaluated in order to confirm the effect of the ginseng berry extract of Example 1 of inhibiting melanin generation.
First, melanocytes (MeI-Ab cells) derived from C57BL/6 mouse [Dooley, T. P. et al, Skin Pharmacol., 7, pp. 188-200] were cultured in Dulbecco's modified Eagle's medium (DMEM) containing 10% FBS, 100 nM 2-O-tetradecanoylphorbol-13-acetate and 1 nM cholera toxin under the condition of 37° C., 5% CO2. The cultured MeI-Ab cells were separated using 0.25% trypsin-EDTA, and cultured on a 24-well plate to a concentration of 10^5 cells/well. Starting from day 2, the ginseng berry extract of Example 1 (1 μg/mL, 10 μg/mL and 100 μg/mL), the ginseng berry saponin concentrate of Example 2 (10 μg/mL), the ginseng root extract of Comparative Example 1 (10 μg/mL) or ginsenosides Rg1, Rg2, Rh1 or Re (10 μg/mL) was added for 3 consecutive days. Hydroquinone (10 μg/mL) was used as a positive control substance. Then, after removing the medium and washing with PBS, the cells were dissolved with 1 N sodium hydroxide. Absorbance was measured at 400 nm, and melanin generation inhibition ratio was calculated by Equation 3.

Human epidermal cells = assay: Hyaluronic acid production in human epidermal cells; type: cell-based; conditions: 48 hours, relative to control; sample 10 μg/mL
Method: Human epidermal cells were cultured and the medium was replaced by one containing the ginseng berry extract of Example 1 (1 μg/mL, 10 μg/mL and 100 μg/mL), the ginseng berry saponin concentrate of Example 2 (10 μg/mL), the ginseng root extract of Comparative Example 1 (10 μg/mL) or ginsenosides Rg1, Rg2, Rh1 or Re (10 μg/mL) or a general medium (control). The cells were then cultured for 48 hours under the same conditions. Then, the quantity of hyaluronic acid in the groups was compared using a hyaluronic acid measurement kit. The result is given as relative value with respect to the control group in Table 16 and FIG. 20.

TNF-α = assay: LPS-induced inflammatory factor TNF-α in mouse blood; type: in vivo; conditions: mouse blood about 12 h after LPS, intra-abdominal
Method: (§1) Based on the experimental result in the cell level, the effect of controlling vascular inflammation of the ginseng berry extract was tested in an animal model. Mice were grouped into a non-treated group, an LPS-induced group, a group treated with the ginseng berry extract of Example 1 (50 μg/mL and 100 μg/mL), a group treated with the ginseng berry saponin concentrate of Example 2 (100 μg/mL), a group treated with the ginseng root extract of Comparative Example 1 (100 μg/mL) and groups treated with ginsenosides Rg1, Rg2, Rh1 or Re (10 μg/mL and 20 μg/mL), with 5 mice per each group.
(§2) 100 mg of each test substance per kg body weight of mouse, diluted in saline solution (0.9% NaCl), was intra-abdominally injected three times from day 1 through day 3. 2 hours after the injection on day 3, LPS diluted in saline solution (1 μg/mL) was injected intra-abdominally at a concentration of about 4 mg per kg body weight of mouse to induce inflammation by inflammatory factors (PGE2, TNF-α and IL1-β). After approximately 12 hours, the abdomen of the mouse was cut open, and blood was taken from the artery of the heart and stored at […]. The blood was kept at room temperature for 30 minutes and, after centrifuge at 4° C. and 3,000 rpm for 10 minutes, the supernatant was kept at −20° C. Then, the inflammatory factors PGE2, TNF-α and IL1-β were identified by western blotting. Measurement was made twice and the mean value was calculated. The result is shown in Table 4 and FIG. 9 (PGE2 (ng/mL)), Table 5 and FIG. 10 (TNF-α (ng/mL)), and Table 6 and FIG. 11 (IL1-β (pg/mL)).

PGE2 = assay: LPS-induced inflammatory factor PGE2 in mouse blood; type: in vivo; conditions: mouse blood about 12 h after LPS, intra-abdominal
Method: as §1, §2

[2] = system: Macrophages (Raw 264.7 cells); assay: Inhibition of LPS-induced NO generation in macrophages (Griess reaction); type: cell-based; conditions: LPS 1 μg/mL
Method: Effect of inhibiting LPS-induced NO generation in macrophages was tested in order to confirm the effect of inhibiting vascular inflammation of the ginseng berry extract.
Macrophages (Raw 264.7 cells) were cultured in a medium containing 10% serum under the condition of 5% CO2. After culturing on a 96-well plate incubator to a concentration of 2×10^5 cells/well and stimulating with LPS (1 μg/mL), the cells were treated with the ginseng berry extract of Example 1 (50 μg/mL and 100 μg/mL), the ginseng berry saponin concentrate of Example 2 (100 μg/mL), the ginseng root extract of Comparative Example 1 (100 μg/mL) or ginsenosides Rg1, Rg2, Rh1 or Re (10 μg/mL and 20 μg/mL), respectively. After keeping the treated cells at 37° C. for 1 hour, the degree of NO generation was measured to compare the effect of inhibiting LPS-induced NO generation of the test substances. NO generation (μM) was measured using the Griess reaction [Minghetti, L. et al., 1991, Glia 19. 152-160]. Measurement was made twice and the mean value was calculated.

type I procollagen = assay: Type I procollagen assay in human fibroblasts (ELISA); type: cell-based; conditions: 3rd day, sample 10 μg/mL
Method: Human fibroblasts were cultured on a 12-well plate incubator to a concentration of 10^5 cells/well. Then, the medium was replaced by one including the ginseng berry extract of Example 1 (1 μg/mL and 10 μg/mL), the ginseng berry saponin concentrate of Example 2 (10 μg/mL), the ginseng root extract of Comparative Example 1 (10 μg/mL) or ginsenosides Rg1, Rg2, Rh1 or Re (10 μg/mL). 10 ng/mL transforming growth factor β (TGF-β) was used as a positive control substance.
On the 3rd day of culturing, the cells were harvested and the quantity of produced type I procollagen was analyzed using ELISA. The result was calculated as a relative value with respect to the negative control group, which was not treated with a test substance.

| SMILES | Melanin generation inhibition ratio (%) [1] [%] | Hyaluronic acid production (%) (Human epidermal cells) | TNF-α, Mean ± standard deviation (TNF-α; group (10 μg/mL)) [ng/mL] | TNF-α, Result 1 (TNF-α; group (10 μg/mL)) [ng/mL] | TNF-α, Result 2 (TNF-α; group (10 μg/mL)) [ng/mL] | TNF-α, Mean ± standard deviation (TNF-α; group (20 μg/mL)) [ng/mL] | TNF-α, Result 1 (TNF-α; group (20 μg/mL)) [ng/mL] | TNF-α, Result 2 (TNF-α; group (20 μg/mL)) [ng/mL] | PGE2, Mean ± standard deviation (PGE2; group (10 μg/mL)) [ng/mL] | PGE2, Result 1 (PGE2; group (10 μg/mL)) [ng/mL] | PGE2, Result 2 (PGE2; group (10 μg/mL)) [ng/mL] | PGE2, Mean ± standard deviation (PGE2; group (20 μg/mL)) [ng/mL] | PGE2, Result 1 (PGE2; group (20 μg/mL)) [ng/mL] | PGE2, Result 2 (PGE2; group (20 μg/mL)) [ng/mL] | NO generation relative to negative control (%) ([2]; sample 10 μg/mL) | NO generation, Mean ± standard deviation ([2]; sample 10 μg/mL) [µM] | NO generation, Result 1 ([2]; sample 10 μg/mL) [µM] | NO generation, Result 2 ([2]; sample 10 μg/mL) [µM] | NO generation relative to negative control (%) ([2]; sample 20 μg/mL) | NO generation, Mean ± standard deviation ([2]; sample 20 μg/mL) [µM] | also measured |
| --- | --- | --- | --- | --- | --- | --- | --- | --- | --- | --- | --- | --- | --- | --- | --- | --- | --- | --- | --- | --- | --- |
| CC(C)=CCC[C@](C)(O)[C@H]1CC[C@]2(C)[C@@H]1[C@H](O)C[C@@H]1[C@@]3(C)CC[C@H](O)C(C)(C)[C@@H]3[C@@H](O[C@@H]3O[C@H](CO)[C@@H](O)[C@H](O)[C@H]3O)C[C@]12C [Rh1] | 2 | 100 | 32.55 ± 5.16 | 28.9 | 36.2 | 32.15 ± 3.32 | 29.8 | 34.5 | 6.13 ± 0.04 | 6.15 | 6.1 | 5.46 ± 0.20 | 5.6 | 5.32 | 89.4 | 14.86 ± 0.07 | 14.92 | 14.81 | 75.1 | 12.48 ± 0.26 | NO generation, Result 1 ([2]; sample 20 μg/mL): 12.29 µM; NO generation, Result 2 ([2]; sample 20 μg/mL): 12.66 µM; Procollagen activity relative to negative control (%) (type I procollagen): 105% |
| CC(C)=CCC[C@](C)(O[C@@H]1O[C@H](CO)[C@@H](O)[C@H](O)[C@H]1O)[C@H]1CC[C@]2(C)[C@@H]1[C@H](O)C[C@@H]1[C@@]3(C)CC[C@H](O)C(C)(C)[C@@H]3[C@@H](O[C@@H]3O[C@H](CO)[C@@H](O)[C@H](O)[C@H]3O)C[C@]12C [Rg1] | 1 | 100 | 38.60 ± 2.69 | 36.7 | 40.5 | 34.55 ± 2.90 | 36.6 | 32.5 | 6.32 ± 0.04 | 6.29 | 6.35 | 6.26 ± 0.07 | 6.31 | 6.21 | 101.2 | 16.83 ± 0.63 | 16.38 | 17.27 | 99.3 | 16.50 ± 1.06 | NO generation, Result 1 ([2]; sample 20 μg/mL): 15.75 µM; NO generation, Result 2 ([2]; sample 20 μg/mL): 17.25 µM; Procollagen activity relative to negative control (%) (type I procollagen): 105% |
| CC(C)=CCC[C@](C)(O)[C@H]1CC[C@]2(C)[C@@H]1[C@H](O)C[C@@H]1[C@@]3(C)CC[C@H](O)C(C)(C)[C@@H]3[C@@H](O[C@@H]3O[C@H](CO)[C@@H](O)[C@H](O)[C@H]3O[C@@H]3O[C@@H](C)[C@H](O)[C@@H](O)[C@H]3O)C[C@]12C [Rg2] | 0 | 105 | 35.05 ± 2.47 | 33.3 | 36.8 | 31.60 ± 1.98 | 30.2 | 33 | 6.15 ± 0.21 | 6 | 6.3 | 6.09 ± 0.09 | 6.15 | 6.02 | 100.3 | 16.68 ± 0.45 | 17.00 | 16.36 | 97.4 | 16.19 ± 0.01 | NO generation, Result 1 ([2]; sample 20 μg/mL): 16.18 µM; NO generation, Result 2 ([2]; sample 20 μg/mL): 16.19 µM; Procollagen activity relative to negative control (%) (type I procollagen): 110% |

From patent publication US10086028B2, “Method for treating vascular inflammation, improving skin beauty and improving male sexual function using ginseng berry” (AMOREPACIFIC CORPORATION, priority 2007, dated 2018)
